Results reported in BindingDB's records for doi:10.1021/jm200288r (National Institute On Drug Abuse-Intramural Research Program, 2011).
pIC50: −log10 of the molar value.

Experiment: Antagonist activity at human dopamine D2 receptor expressed in CHOp cells assessed as inhibition of quinpirole-induced mitogenesis

SMILES | pIC50
COc1ccc2oc(C(=O)NCCC(F)CN3CCN(c4cccc(Cl)c4Cl)CC3)cc2c1 (configuration not stated) [N-(4-(4-(2,3-Dichlorophenyl)piperazin-1-yl)-3-fluorobutyl)-5-methoxybenzofuran-2-carboxamide] | 5.80
COc1ccccc1N1CCN(CC(F)CCNC(=O)c2cc3ccccc3s2)CC1 (configuration not stated) [N-(3-Fluoro-4-(4-(2-methoxyphenyl)piperazin-1-yl)butyl)-benzo[b]thiophene-2-carboxamide] | 6.38
